In publication PMC5307958 (Scientific Reports, 2017):
“Also recorded” adds a separate entry of the source. Where a SMILES comes first, the peptide text is derived from it. Bridges are numbered along the chain shown (N, C = ends).

Tests used:
mAcetylcholine M4 = experiment: Competition radioligand binding (NIMH PDSP); details: radioligand QNB, measured 4 times
33 mammalian CNS targets = experiment: NIMH-PDSP competition binding panel, all targets
Experimental: (§1) LS3 was screened against a comprehensive panel of CNS-based proteins. Detailed protocols can be found within the US National Institute of Mental Health Psychoactive Drug Screening Program (NIMH PDSP) Assay Protocol Book (version II), by B. L. Roth, March 2013 (available at: http://pdsp.med.unc.edu/PDSP%20Protocols%20II%202013-03-28.pdf). […] Radioactivity in the presence of the LS3 (sample) was calculated with the following equation and expressed as a percent inhibition: % inhibition = (sample CPM – non-specific CPM)/Total CPM – non-specific CPM) × 100. Total binding was measured with no competing ligand. Non-specific binding was measured in the presence of reference compound. The % inhibition by LS3 was measured 4 times for each receptor.

[1] = system: human BKα channel ZERO isoform expressed in HEK293 cells; experiment: Phagemid display selection (panning); assay type: binding
Excerpt: A monovalent phagemid display library (library C, Mobitec) was sequentially panned against three sets of HEK293 cells (see below). For negative selection, cells expressed the human glycine receptor α1 (hGlyRα1, X52009) and the rat small conductance calcium-activated channel 2 (rSK2, U69882.1). For positive selection, cells expressed the human BKα channel ZERO isoform (NM_002238). The progress of the selection process was monitored after each panning round by titering and sequencing the phagemid DNA. With 6 randomized and 3 fixed amino acids, this library started with 3 × 10^7 unique sequences. LS3 was selected as one of the sequences expressing motifs that were enriched more than 1000 -fold. LS3 was synthesized as a TFA salt at 98–99% purity verified by HPLC and MS analysis (Genscript, Piscataway, NJ). Stocks were dissolved in water at 10 mM and aliquots were lyophilized and stored at −80 °C. As a secondary determination of identity and purity, in-house LC/MS was performed on a single quadrupole Mass Spectrophotometer (Agilent 6130) interfaced with a HPLC with a diode-array (UV-vis) detector (Agilent 1200).
HEK293 cells (ATCC, Manassas, VA) were grown according to standard procedures. Cells were cultured at 37 °C in a 5% CO2 atmosphere in Dulbecco’s modified Eagle’s medium with L-glutamine, sodium pyruvate and 10% fetal bovine serum (Invitrogen). Cell lines were split with trypsin/EDTA in Hanks’ balanced salt solution (Invitrogen) up to 25–30 cycles. For phage display, stable lines stably expressed rSK2 or hBKα ZERO isoform. Cells were transfected (Lipofectamine 2000, Invitrogen) with hGlyRα1 and used 48 hours later. For electrophysiological recordings, cells were transfected with hBKα ZERO isoform. Enhanced green fluorescent protein (EGFP) was cotransfected as a marker. Electrophysiological recordings were made 16–72 h after transfection. […]

[2] = system: mouse inferior colliculus (auditory midbrain); experiment: Sound evoked activity within excitatory receptive field (eRF), systemic administration; details: for spikes within the eRF, representative eRF: baseline 522 spikes, BF 19.5 kHz
Opioid MOR = experiment: Competition radioligand binding (NIMH PDSP); details: radioligand DAMGO, measured 4 times
Experimental: as §1

5HT 1A = experiment: Competition radioligand binding (NIMH PDSP); details: radioligand 8-OH-DPAT, measured 4 times
Experimental: as §1

BZP rat brain site = experiment: Competition radioligand binding (NIMH PDSP); details: radioligand Flunitrazepam, measured 4 times
Experimental: as §1

hERG = experiment: Competition radioligand binding (NIMH PDSP); details: human, probe Dofetilide (radioligand), measured 4 times, read-out: % inhibition by 10 µM LS3
Experimental: as §1

5HT 2B = experiment: Competition radioligand binding (NIMH PDSP); details: radioligand LSD, measured 4 times
Experimental: as §1

5HT 2A = experiment: Competition radioligand binding (NIMH PDSP); details: radioligand Ketanserin, measured 4 times
Experimental: as §1

5HT 1B = experiment: Competition radioligand binding (NIMH PDSP); details: radioligand GR127543, measured 4 times
Experimental: as §1

Histamine H3 = experiment: Competition radioligand binding (NIMH PDSP); details: radioligand α-methylhistamine, measured 4 times
Experimental: as §1

Adrenergic Alpha2A = experiment: Competition radioligand binding (NIMH PDSP); details: radioligand Clonidine, measured 4 times
Experimental: as §1

NET = experiment: Competition radioligand binding (NIMH PDSP); details: radioligand Nisoxetine, measured 4 times
Experimental: as §1

GABAA = experiment: Competition radioligand binding (NIMH PDSP); details: radioligand Muscimol, measured 4 times
Experimental: as §1

SERT = experiment: Competition radioligand binding (NIMH PDSP); details: radioligand Citalopram, measured 4 times
Experimental: as §1

Dopamine D2 = experiment: Competition radioligand binding (NIMH PDSP); details: radioligand N-methylspiperone, measured 4 times
Experimental: as §1

Histamine H1 = experiment: Competition radioligand binding (NIMH PDSP); details: radioligand Pyrilamine, measured 4 times
Experimental: as §1

Dopamine D1 = experiment: Competition radioligand binding (NIMH PDSP); details: radioligand SCH233930, measured 4 times
Experimental: as §1

Sigma 2 = experiment: Competition radioligand binding (NIMH PDSP); details: radioligand DTG, measured 4 times
Experimental: as §1

[3] = phage-displayed sequence CRRGLVQVC

## CC(C)C[C@@H]1NC(=O)CNC(=O)[C@H](CCCNC(=N)N)NC(=O)[C@H](CCCNC(=N)N)NC(=O)[C@@H](N)CSSC[C@@H](C(=O)O)NC(=O)[C@H](C(C)C)NC(=O)[C@H](CCC(N)=O)NC(=O)[C@H](C(C)C)NC1=O [LS3] (H-CRRGLVQVC-OH; disulfide 1-9; N-terminus and C-terminus assumed)
mAcetylcholine M4
  % inhibition by 10 µM LS3: 6.8%
33 mammalian CNS targets; 10 microM LS3
  interaction with known ligand binding sites on 33 mammalian CNS targets: does not have high affinity interactions
33 mammalian CNS targets; 10 microM LS3, all 33 targets, printed 'substantially less than 50%', each measured 4 times
  inhibition of radioligand binding: less than 50%
33 mammalian CNS targets; inferred from less than 50% inhibition at 10 microM LS3, array of CNS targets
  Ki: > 10 µM
[1]; criterion for selection of LS3
  enrichment of motifs expressed by the sequence: more than 1000 fold
[1]; [3]
  enrichment of motif RRXXXXV during selection: ~ 4000 fold
  enrichment of motif XRGXXXV during selection: ~ 3000 fold
[2]; 0.3 mg/kg I.P. LS3
  effect on sound evoked activity in the inferior colliculus: suppressed sound evoked activity in the inferior colliculus; also recorded: suppresses sound evoked activity in the IC when administered systemically
[2]; systemic (0.3 mg/kg I.P.) LS3, 2 hrs
  spikes within the eRF, representative eRF: 41 spikes
[2]; systemic (0.3 mg/kg I.P.) LS3, 5 hours
  spikes within the eRF, representative eRF: 37 spikes
[2]; systemic (0.3 mg/kg I.P.) LS3, over 2 hours, mean, 47 units from 5 CBA mice
  reduction in spikes within the eRF: 85%
[2]; systemic (0.3 mg/kg I.P.) LS3, over 5 hours
  decrease in sound evoked activity within the receptive field, representative eRF: 93%
[2]; systemic LS3, mean of 49 units, F(32,936) = 7.724 P < 0.0001
  time course of driven activity: continued to decline out to 7 hours
Opioid MOR
  % inhibition by 10 µM LS3: 2.2%
5HT 1A
  % inhibition by 10 µM LS3: 11.4%
BZP rat brain site
  % inhibition by 10 µM LS3: 5.1%
hERG
  inhibition at 10 µM: 21.2%
5HT 2B
  % inhibition by 10 µM LS3: 3.2%
5HT 2A
  % inhibition by 10 µM LS3: 16.2%
5HT 1B
  % inhibition by 10 µM LS3: 2.8%
Histamine H3
  % inhibition by 10 µM LS3: 5.1%
Adrenergic Alpha2A
  % inhibition by 10 µM LS3: 3.2%
NET
  % inhibition by 10 µM LS3: 6.7%
GABAA
  % inhibition by 10 µM LS3: 19.3%
SERT
  % inhibition by 10 µM LS3: 0.1%
Dopamine D2
  % inhibition by 10 µM LS3: 20.9%
Histamine H1
  % inhibition by 10 µM LS3: 14.8%
Dopamine D1
  % inhibition by 10 µM LS3: 15.7%
Sigma 2
  % inhibition by 10 µM LS3: 24.3%
